These results are taken from publication PMC3942886 (Molecular and cellular biochemistry, 2013).

For the assay, the system named is hexokinase (from baker's yeast purchased from Sigma). The experiment in a line: pyruvate kinase/lactate dehydrogenase coupled assay, NADH oxidation. Type of assay: biochemical. The settings on record: read-out: Km(glucose); positive control; ATP co-substrate.

The term Km denotes the substrate concentration at which the rate is half of its maximum. As to `OC[C@H]1OC(O)[C@H](O)[C@@H](O)[C@@H]1O` (stereo partly shown) [glucose], the Km was around 300 µM.
